Reference: patent publication US20180155757A1, “IDENTIFICATION OF BACTERIA THAT ARE RESISTANT TO CARBAPENEMS BY MEMBRANE IMPERVIOUSNESS” (BIOMÉRIEUX, priority 2015, published 2018)
Like-named read-outs stand apart in the source and are kept apart here.

What was measured:
Test in all cases: Etest MIC of indicator carbapenems on MH II agar without/with PMBN
Type in all cases: cell-based
[1] = system: Enterobacter aerogenes EA 15038 (porin+); conditions: Klebsiella aerogenes, EA 15038 (porin+), read-out: MIC
Experimental: (§1) The determinations of antibiotic MIC were carried out on solid culture media with the Etest® method. To do this, Etest® strips (bioMérieux, France) were used: • Etest® Imipenem IM 32, and • Etest® Ertapenem ETP 32, and also solid culture media, differing from one another by virtue of their non-inhibitory concentrations of PMBN.
(§2) These solid culture media are prepared in Petri dishes (0=145 mm; V=50 ml) on a base of MH II Agar (Becton Dickinson®, United States), more or less supplemented with PMBN. The PMBN concentrations range from 0 up to concentrations equivalent to one fifth of the MIC of PMBN (⅕ MICPMBN).
(§3) Using a swab and the Retro C80™ rota-plater (bioMérieux, France), the culture media were inoculated with the bacteria, originating from an inoculum of 0.5 McFarland, prepared in 0.85% NaCl solution from colonies subcultured the day before on MH II agar.
(§4) The various Etest® strips are then deposited on the surface of the culture media. After 16 to 20 hours of incubation at 35° C., the MICS were read.

[2] = system: Enterobacter aerogenes EA 2 (porin+); conditions: Klebsiella aerogenes, EA 2 (porin+), read-out: MIC
Experimental: as §1, §2, §3, §4

[3] = system: C. freundii 0403012
Experimental: as §1, §2, §3, §4
(§5) To do this, imipenem and ertapenem were used as indicator carbapenems. Non-inhibitory concentrations of PMBN, equivalent to concentrations of one tenth ( 1/10), one eighth (⅛) and one fifth (⅕) of the MIC of PMBN, were applied.

[4] = system: C. freundii 1204047
Experimental: as §1, §2, §3, §4, §5

[5] = system: E. cloacae 0901026 (KPC-2 producer)
Experimental: as §1, §2, §3, §4, §5

[6] = system: E. cloacae 1008073 (VIM-1 producer)
Experimental: as §1, §2, §3, §4, §5

[7] = system: E. cloacae 1008079 (IMP-1 producer)
Experimental: as §1, §2, §3, §4, §5

[8] = system: E. cloacae 1008096 (VIM-1 producer)
Experimental: as §1, §2, §3, §4, §5

[9] = system: E. cloacae 1101172 (NDM producer)
Experimental: as §1, §2, §3, §4, §5

[10] = system: E. cloacae 9304026
Experimental: as §1, §2, §3, §4, §5

[11] = system: E. coli 0506040 (VIM-1 producer)
Experimental: as §1, §2, §3, §4, §5

[12] = system: E. coli 1008077 (VIM-1 producer)
Experimental: as §1, §2, §3, §4, §5

[13] = system: E. coli 1012292 (KPC-2 producer)
Experimental: as §1, §2, §3, §4, §5

[14] = system: K. pneumoniae 0404024 (VIM-1 producer)
Experimental: as §1, §2, §3, §4, §5

[15] = system: K. pneumoniae 1104053 (OXA-48 producer)
Experimental: as §1, §2, §3, §4, §5

[16] = system: K. pneumoniae 1108001 (KPC-2 producer)
Experimental: as §1, §2, §3, §4, §5

[17] = system: K. pneumoniae 1108002 (KPC-3 producer)
Experimental: as §1, §2, §3, §4, §5

[18] = system: K. pneumoniae 1108006 (KPC-2 producer)
Experimental: as §1, §2, §3, §4, §5

[19] = system: K. pneumoniae 1108007 (VIM-1 producer)
Experimental: as §1, §2, §3, §4, §5

[20] = system: K. pneumoniae 1108016 (VIM-1 producer)
Experimental: as §1, §2, §3, §4, §5

[21] = system: S. marcescens 1008175 (IMP-1 producer)
Experimental: as §1, §2, §3, §4, §5

## C[C@@H](O)[C@H]1C(=O)N2C(C(=O)O)=C(SCCN=CN)C[C@H]12 [IM, imipenem]
[1]; [PMBN] 0
  MIC: 0.25 mg/L
[1]; [PMBN] MIC/5
  MIC: 0.25 mg/L
[1]; [PMBN] MIC/8
  MIC: 0.5 mg/L
[1]; [PMBN] MIC/10
  MIC: 0.5 mg/L
[2]; [PMBN] 0
  MIC: 0.03 mg/L
[2]; [PMBN] MIC/5
  MIC: 0.03 mg/L
[2]; [PMBN] MIC/8
  MIC: 0.06 mg/L
[2]; [PMBN] MIC/10
  MIC: 0.06 mg/L
[3]; [PMBN] 0
  MIC: 4 mg/L
[3]; [PMBN] MIC/5
  MIC: 1 mg/L
[3]; [PMBN] MIC/8
  MIC: 1 mg/L
[3]; [PMBN] MIC/10
  MIC: 2 mg/L
[4]; [PMBN] 0
  MIC: 1 mg/L
[4]; [PMBN] MIC/5
  MIC: 1 mg/L
[4]; [PMBN] MIC/8
  MIC: 1 mg/L
[4]; [PMBN] MIC/10
  MIC: 2 mg/L
[5]; [PMBN] 0
  MIC: 16 mg/L
[5]; [PMBN] MIC/5
  MIC: 8 mg/L
[5]; [PMBN] MIC/8
  MIC: 8 mg/L
[5]; [PMBN] MIC/10
  MIC: 16 mg/L
[6]; [PMBN] 0
  MIC: 0.25 mg/L
[6]; [PMBN] MIC/5
  MIC: 0.25 mg/L
[6]; [PMBN] MIC/8
  MIC: 0.25 mg/L
[6]; [PMBN] MIC/10
  MIC: 0.25 mg/L
[7]; [PMBN] 0
  MIC: 2 mg/L
[7]; [PMBN] MIC/5
  MIC: 2 mg/L
[7]; [PMBN] MIC/8
  MIC: 2 mg/L
[7]; [PMBN] MIC/10
  MIC: 4 mg/L
[8]; [PMBN] 0
  MIC: 4 mg/L
[8]; [PMBN] MIC/5
  MIC: 4 mg/L
[8]; [PMBN] MIC/8
  MIC: 8 mg/L
[8]; [PMBN] MIC/10
  MIC: 8 mg/L
[9]; [PMBN] 0
  MIC: 4 mg/L
[9]; [PMBN] MIC/5
  MIC: 4 mg/L
[9]; [PMBN] MIC/8
  MIC: 16 mg/L
[9]; [PMBN] MIC/10
  MIC: 8 mg/L
[10]; [PMBN] 0
  MIC: 8 mg/L
[10]; [PMBN] MIC/5
  MIC: 4 mg/L
[10]; [PMBN] MIC/8
  MIC: 4 mg/L
[10]; [PMBN] MIC/10
  MIC: 4 mg/L
[11]; [PMBN] 0
  MIC: 4 mg/L
[11]; [PMBN] MIC/5
  MIC: 4 mg/L
[11]; [PMBN] MIC/8
  MIC: 4 mg/L
[11]; [PMBN] MIC/10
  MIC: 4 mg/L
[12]; [PMBN] 0
  MIC: 16 mg/L
[12]; [PMBN] MIC/5
  MIC: 16 mg/L
[12]; [PMBN] MIC/8
  MIC: 16 mg/L
[12]; [PMBN] MIC/10
  MIC: 8 mg/L
[13]; [PMBN] 0
  MIC: 8 mg/L
[13]; [PMBN] MIC/5
  MIC: 1 mg/L
[13]; [PMBN] MIC/8
  MIC: 4 mg/L
[13]; [PMBN] MIC/10
  MIC: 4 mg/L
[14]; [PMBN] 0
  MIC: 64 mg/L
[14]; [PMBN] MIC/5
  MIC: 64 mg/L
[14]; [PMBN] MIC/8
  MIC: 64 mg/L
[14]; [PMBN] MIC/10
  MIC: 64 mg/L
[15]; [PMBN] 0
  MIC: 2 mg/L
[15]; [PMBN] MIC/5
  MIC: 2 mg/L
[15]; [PMBN] MIC/8
  MIC: 2 mg/L
[15]; [PMBN] MIC/10
  MIC: 2 mg/L
[16]; [PMBN] 0
  MIC: 8 mg/L
[16]; [PMBN] MIC/5
  MIC: 4 mg/L
[16]; [PMBN] MIC/8
  MIC: 8 mg/L
[16]; [PMBN] MIC/10
  MIC: 8 mg/L
[17]; [PMBN] 0
  MIC: 16 mg/L
[17]; [PMBN] MIC/5
  MIC: 16 mg/L
[17]; [PMBN] MIC/8
  MIC: 16 mg/L
[17]; [PMBN] MIC/10
  MIC: 16 mg/L
[18]; [PMBN] 0
  MIC: 32 mg/L
[18]; [PMBN] MIC/5
  MIC: 32 mg/L
[18]; [PMBN] MIC/8
  MIC: 64 mg/L
[18]; [PMBN] MIC/10
  MIC: 32 mg/L
[19]; [PMBN] 0
  MIC: 32 mg/L
[19]; [PMBN] MIC/5
  MIC: 16 mg/L
[19]; [PMBN] MIC/8
  MIC: 16 mg/L
[19]; [PMBN] MIC/10
  MIC: 16 mg/L
[20]; [PMBN] 0
  MIC: 4 mg/L
[20]; [PMBN] MIC/5
  MIC: 4 mg/L
[20]; [PMBN] MIC/8
  MIC: 8 mg/L
[20]; [PMBN] MIC/10
  MIC: 8 mg/L
[21]; [PMBN] 0
  MIC: 128 mg/L
[21]; [PMBN] MIC/5
  MIC: 256 mg/L
[21]; [PMBN] MIC/8
  MIC: 256 mg/L
[21]; [PMBN] MIC/10
  MIC: 128 mg/L
